Measurements taken from the supplement of paper PMC10307832.

How the values were obtained:
Experiment in all cases: relative viability (nuclei count vs DMSO), 5 days (fraction); higher = more cells survive
RO-3306 + Pictilisib = compound: C1=CC2=C(C=CC(=C2)C=C3C(=O)NC(=NCC4=CC=CS4)S3)N=C1 [RO-3306] + CS(=O)(=O)N1CCN(Cc2cc3nc(-c4cccc5[nH]ncc45)nc(N4CCOCC4)c3s2)CC1 [Pictilisib] (partner 1 µM)
Procedure, shortened: (§1)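 Values are medians from duplicate plates. Each reflects relative viability, defined as the nuclei count of treated wells over that of vehicle wells. Lung cancer cell lines in 1536-well plates were pin-tool dosed one day after seeding with one drug alone or with a fixed anchor-drug dose plus five library-drug doses (not always all listed) in √10 steps, then fixed, stained and imaged at 4× after 5 days.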

RO-3306 + Crizotinib = compound: C1=CC2=C(C=CC(=C2)C=C3C(=O)NC(=NCC4=CC=CS4)S3)N=C1 [RO-3306] + C[C@@H](Oc1cc(-c2cnn(C3CCNCC3)c2)cnc1N)c1c(Cl)ccc(F)c1Cl [Crizotinib] (partner 1 µM)
Procedure, shortened: as §1

[1] = compound: O=S(=O)(c1ccccc1)N(CC(F)(F)F)c1ccc(C(O)(C(F)(F)F)C(F)(F)F)cc1
Procedure, shortened: (§2)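 Viability was defined as treated-well nuclei divided by vehicle-well nuclei, with the median taken over replicate plates. Cells from lung cancer lines sat overnight at 37 °C in 1536-well plates, received five √10-spaced library-drug doses by pinning on vehicle-anchored plates, and grew 5 days without medium change before one-step fixation, permeabilisation and Hoechst staining, 4× imaging and MetaXpress nuclear counts. Only plates with control CV under 25% and at least one doubling were kept.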

RO-3306 = compound: C1=CC2=C(C=CC(=C2)C=C3C(=O)NC(=NCC4=CC=CS4)S3)N=C1 [RO-3306]
Procedure, shortened: as §2

Foretinib = compound: COc1cc2c(Oc3ccc(NC(=O)C4(C(=O)Nc5ccc(F)cc5)CC4)cc3F)ccnc2cc1OCCCN1CCOCC1 [Foretinib] (anchor plate); conditions: 0.25 µM
Procedure, shortened: as §2

Cell Line	relative viability (RO-3306 + Pictilisib; first compound 0.01 µM)	relative viability (RO-3306 + Pictilisib; first compound 0.03162 µM)	relative viability (RO-3306 + Pictilisib; first compound 0.1 µM)	relative viability (RO-3306 + Pictilisib; first compound 0.3162 µM)	relative viability (RO-3306 + Pictilisib; first compound 1 µM)	relative viability (RO-3306 + Crizotinib; first compound 0.01 µM)	relative viability (RO-3306 + Crizotinib; first compound 0.03162 µM)	relative viability (RO-3306 + Crizotinib; first compound 0.1 µM)	relative viability (RO-3306 + Crizotinib; first compound 0.3162 µM)	relative viability (RO-3306 + Crizotinib; first compound 1 µM)	relative viability ([1]; 0.8 µM)	relative viability ([1]; 2.53 µM)	relative viability ([1]; 8 µM)	relative viability (RO-3306; 0.01 µM)	relative viability (RO-3306; 0.03162 µM)	relative viability (RO-3306; 0.1 µM)	relative viability (RO-3306; 0.3162 µM)	relative viability (RO-3306; 1 µM)	relative viability (Foretinib)
EPLC-272H	0.3	0.211	0.275	0.255	0.287	0.948	0.841	0.904	1.03	0.532	0.942	0.929	0.982	0.866	0.73	0.921	0.901	0.791	0.723
NCI-H3122	0.602	0.56	0.624	0.611	0.525	0.253	0.262	0.244	0.244	0.283	0.99	0.977	1.08	1.05	0.99	1.01	1.05	1.04	0.93
SK-MES-1	0.324	0.334	0.353	0.413	0.355	1.1	0.867	0.969	0.991	1.07	1.11	0.973	0.936	1.07	0.963	1.02	1.08	1.08	0.965
NCI-H661	0.41	0.377	0.356	0.392	0.363	1.03	1.22	1.06	0.773	1.07	1.04	0.982	0.971	0.995	0.951	0.978	0.963	1.06	0.971
NCI-H322M	0.493	0.486	0.485	0.556	0.585	0.861	0.999	1.1	0.95	0.953	1.08	0.966	0.866	0.86	0.908	0.854	0.954	1.01	1.01
NCI-H1563	0.641	0.597	0.69	0.62	0.59	0.866	0.849	0.894	0.873	0.918	0.95	1.02	0.947	0.966	0.887	0.936	0.993	0.953	0.93
NCI-H727	0.355	0.356	0.438	0.319	0.41	1.33	0.781	0.837	1	0.964	1.08	0.702	0.898	0.892	0.704	1.01	1	1.2	0.892
LU99A	0.33	0.292	0.343	0.284	0.295	0.644	0.556	0.576	0.579	0.568	1.09	0.885	0.875	0.983	0.831	0.876	0.912	0.817	0.827
SK-LU-1	0.539	0.603	0.651	0.671	0.521	0.991	0.84	1.03	0.935	0.716	1.16	1.08	0.992	1.08	0.924	1.07	1.01	0.995	0.785
201T	0.671	0.616	0.668	0.663	0.559	1.07	1.03	0.998	0.992	1.02	1.02	0.928	1.06	1.06	0.969	0.956	0.987	0.746	1.16
COR-L23	0.816		0.835	0.77	0.67	0.45		0.748	0.694	0.74	1.13	0.921	0.858	1.03	0.892	1.04	1.04	1.14	0.949
LCLC-97TM1		0.18	0.165	0.254	0.183		0.379	0.313	0.338	0.31	0.796	0.837	0.885	0.895	0.799	0.932	1.04	0.942	0.937
PC-14	0.892	0.539	0.648	0.592	0.511	0.977	0.841	1.03	0.864	0.836	1.03	0.832	0.83	1.05	0.836	1.05	1.05	0.926	0.951
NCI-H1651	0.598	0.359	0.574	0.601	0.634	0.865	0.834	0.88	0.881	0.84	1.05	0.965	0.944	0.978	0.875	0.994	1.03	0.934	0.763
HCC-15	0.707	0.603	0.717	0.815	0.542	1.01	0.707	0.848	0.925	0.763	1.04	0.871	0.861	1.13	0.897	0.998	1.07	0.992	1.05
NCI-H1755	0.523	0.376	0.424	0.457	0.473	0.934	1.02	0.875	0.846	0.811	1.02	0.982	0.928	1.02	1	0.98	0.985	1.02	0.915
